Experimental data from patent US11427547B2, “Edaravone prodrug compound and pharmaceutical use thereof in treatment or alleviation of neurodegenerative or motor neuron disease” (J2H BIOTECH INC., priority 2018, dated 2022).
≈ marks a conversion by molar mass, not a printed value. Counter-ions that a name gives are not always drawn.

Columns and labels:
[1] = Pharmacokinetic evaluation: edaravone in plasma after single oral administration to rats; type: in vivo, SD (Sprague-Dawley) rats; conditions: SD rats
Experimental: The pharmacokinetic test of the compounds of Examples and Reference Example was carried out as follows. That is, after a single oral administration of the test compound to SD (Sprague-Dawley) rats, the efficacy of the compound of the present invention was verified by tracking the kinetics of the edaravone released into the blood by metabolic processes and comparing it with a standard substance. Specifically, edaravone, a standard substance, was administered intravenously and orally, respectively, and the test compounds were administered orally. Then, the concentration of edaravone in blood was evaluated. The standard substance and the test compounds were each prepared in the same manner and then administered to rats at a dose of 0.1 mmol/kg, and blood was collected at a predetermined time and plasma was separated. Analysis of the drug was performed using HPLC (XBridge column Cis, Waters, mobile phase 0.1% formic acid:acetonitrile (30:70, %/%)) and MS/MS (ESI positive, MRM). Each commercial standard solution was mixed in a ratio of 9:1 with rat plasma to prepare and calibrate at concentrations of 5, 50, 100, 500, 1000 and 5000 ng/ml. In addition, the QC sample was prepared by mixing the rat plasma and the standard solution for QC at a ratio of 9:1, and at concentrations of 100, 750 and 2,500 ng/ml. In the pretreatment method, 100 μl of plasma sample was transferred to a tube for centrifugation, 10 μl of an internal standard solution and 300 μl of methanol were added, followed by mixing for about 30 seconds. The tube was centrifuged at 3,000×g (4° C.) for about 5 minutes, the supernatant was taken and transferred to an LC vial, and then injected into the instrument. In addition, the concentration of an active ingredient, that is, edaravone, in rat plasma was quantified by applying a previously validated analysis method. For pharmacokinetic parameters, WinNonlin 5.2 (Pharsight, USA) program was used, and AUC0-t, AUC0-∞, Cmax, Tmax, and t1/2 were calculated by noncompartment modeling (best fit). The pharmacokinetic parameter results were expressed as mean and standard deviation (SD), and statistically processed using the SPSS program (Statistical Package for the Social Sciences, 10.0K, USA).

[2] = in vivo; cited from earlier work
[3] = cited from earlier work
[4] = cited from earlier work; remark: listed apart in the source

SMILES | oral bioavailability (in words) [1] | oral absorption rate (Fabs) [2] [%] | solubility [3] [µg/mL] | permeability (Peff) [4] [×10⁻⁶ cm/s]
Cc1cc(OC(=O)N2CCN(C(=O)[C@@H](N)C(C)C)CC2)n(-c2ccccc2)n1.Cl [Example 10, (S)-3-methyl-1-phenyl-1H-pyrazol-5-yl 4-(2-amino-3-methylbutanoyl)piperazine-1-carboxylate Hydrochloride] | excellent | – | – | –
Cc1cc(OC(=O)N2CCN(C(=O)[C@@H](N)C(C)C)[C@@H](C)C2)n(-c2ccccc2)n1.Cl [Example 14, (S)-3-methyl-1-phenyl-1H-pyrazol-5-yl 4-((S)-2-amino-3-methylbutanoyl)-3-methylpiperazin-1-carboxylate Hydrochloride] | excellent | – | – | –
Cc1cc(OC(=O)N2CCN(C(=O)[C@@H](N)C(C)(C)C)CC2)n(-c2ccccc2)n1.Cl [Example 15, (S)-3-methyl-1-phenyl-1H-pyrazol-5-yl 4-(2-amino-3,3-dimethylbutanoyl)piperazine-1-carboxylate Hydrochloride] | excellent | – | – | –
Cc1cc(OC(=O)N2CCN(C(=O)[C@@H](N)CCCCN)CC2)n(-c2ccccc2)n1 [Example 19, (S)-3-methyl-1-phenyl-1H-pyrazol-5-yl 4-(2,6-diaminohexanoyl)piperazine-1-carboxylate Dihydrochloride] | excellent | – | – | –
CC1=NN(c2ccccc2)C(=O)C1 [edaravone] | – | 5.23 | 1850 (≈ 10.6 mM) | 0.318
